Measured values reported in ChEMBL document CHEMBL2203055, “From α4β2 Nicotinic Ligands to the Discovery of σ1 Receptor Ligands: Pharmacophore Analysis and Rational Design” (ACS Med Chem Lett, 2012).
pKi: −log10 of the molar value.

Legend:
[1] = tested on: PC-12; experiment: Displacement of [3H]DTG from sigma 2 receptor in rat PC12 cell membrane at 10 uM after 2 hrs by microbeta scintillation counting analysis; assay type: cell membranes
[2] = biological target: Sigma non-opioid intracellular receptor 1 (Rattus norvegicus) (UniProt Q9R0C9); experiment: Displacement of [3H]pentazocine from sigma 1 receptor in rat brain membrane at 10 uM after 2.5 hrs by microbeta scintillation counting analysis; assay type: cell membranes
[3] = biological target: Sigma non-opioid intracellular receptor 1 (Rattus norvegicus, UniProt Q9R0C9); experiment: Displacement of [3H]pentazocine from sigma 1 receptor in rat brain membrane after 2.5 hrs by microbeta scintillation counting analysis; assay type: cell membranes
[4] = biological target: Sigma non-opioid intracellular receptor 1 (Homo sapiens, UniProt Q99720); experiment: Binding affinity to sigma 1 receptor
[5] = Displacement of [3H]DTG from sigma 2 receptor in rat PC12 cell membrane after 2 hrs by microbeta scintillation counting analysis; assay type: cell membranes; details: pc-12
[6] = biological target: Neuronal acetylcholine receptor; alpha4/beta4 (Rattus norvegicus, UniProt P09483+P12392); experiment: Displacement of [3H]epibatidine from alpha4beta4 nAChR after 4 hrs by liquid scintillation counting analysis; assay type: protein-complex assay
[7] = biological target: T1, Neuronal acetylcholine receptor; alpha4/beta2 (Rattus norvegicus, UniProt P09483+P12390); experiment: Displacement of [3H]epibatidine from alpha4beta2* nAChR in rat forebrain after 4 hrs by liquid scintillation counting analysis
[8] = biological target: T1, Neuronal acetylcholine receptor; alpha4/beta2; experiment: Displacement of [3H]epibatidine from alpha4beta2 nAChR after 4 hrs by liquid scintillation counting analysis; assay type: protein-complex assay
[9] = biological target: Neuronal acetylcholine receptor; alpha3/beta4 (Rattus norvegicus, UniProt P04757+P12392); experiment: Displacement of [3H]epibatidine from alpha3beta4 nAChR after 4 hrs by liquid scintillation counting analysis; assay type: protein-complex assay
[10] = biological target: Neuronal acetylcholine receptor; alpha3/beta2 (Rattus norvegicus, UniProt P04757+P12390); experiment: Displacement of [3H]epibatidine from alpha3beta2 nAChR after 4 hrs by liquid scintillation counting analysis; assay type: protein-complex assay
[11] = biological target: Neuronal acetylcholine receptor; alpha2/beta4 (Rattus norvegicus, UniProt P12389+P12392); experiment: Displacement of [3H]epibatidine from alpha2beta4 nAChR after 4 hrs by liquid scintillation counting analysis; assay type: protein-complex assay
Chain of Neuronal acetylcholine receptor; alpha2/beta4 (P12389 whole entry): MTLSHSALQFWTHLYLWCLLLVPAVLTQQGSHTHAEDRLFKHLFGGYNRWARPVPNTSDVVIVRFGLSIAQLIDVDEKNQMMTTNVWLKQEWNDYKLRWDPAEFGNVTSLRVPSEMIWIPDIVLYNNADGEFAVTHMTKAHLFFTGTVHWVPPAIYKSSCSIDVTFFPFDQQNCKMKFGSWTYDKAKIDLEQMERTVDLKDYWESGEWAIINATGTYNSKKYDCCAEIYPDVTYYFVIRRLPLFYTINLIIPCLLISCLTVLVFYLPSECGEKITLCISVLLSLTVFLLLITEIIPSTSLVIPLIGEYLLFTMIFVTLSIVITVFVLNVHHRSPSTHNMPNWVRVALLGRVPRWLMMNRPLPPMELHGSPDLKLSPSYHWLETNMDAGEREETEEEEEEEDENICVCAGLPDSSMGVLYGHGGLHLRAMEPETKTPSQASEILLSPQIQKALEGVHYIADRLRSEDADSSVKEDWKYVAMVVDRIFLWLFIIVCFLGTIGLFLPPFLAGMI
Chain of Neuronal acetylcholine receptor; alpha2/beta4 (P12392 whole entry): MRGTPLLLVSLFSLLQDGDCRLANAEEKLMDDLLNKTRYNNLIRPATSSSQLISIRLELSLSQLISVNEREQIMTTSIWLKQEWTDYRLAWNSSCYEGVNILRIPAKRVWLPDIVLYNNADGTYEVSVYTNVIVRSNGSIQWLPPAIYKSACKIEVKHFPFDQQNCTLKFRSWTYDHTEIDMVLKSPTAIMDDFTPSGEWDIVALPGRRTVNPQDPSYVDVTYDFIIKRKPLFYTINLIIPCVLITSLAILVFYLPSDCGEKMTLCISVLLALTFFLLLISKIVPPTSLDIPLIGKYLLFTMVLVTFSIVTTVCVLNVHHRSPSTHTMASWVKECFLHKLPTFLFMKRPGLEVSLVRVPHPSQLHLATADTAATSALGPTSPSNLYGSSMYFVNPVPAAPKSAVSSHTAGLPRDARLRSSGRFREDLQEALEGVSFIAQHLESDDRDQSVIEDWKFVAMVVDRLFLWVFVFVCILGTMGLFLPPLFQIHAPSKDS

Chain of Sigma non-opioid intracellular receptor 1 (Rattus norvegicus, UniProt Q9R0C9) (Q9R0C9 whole entry): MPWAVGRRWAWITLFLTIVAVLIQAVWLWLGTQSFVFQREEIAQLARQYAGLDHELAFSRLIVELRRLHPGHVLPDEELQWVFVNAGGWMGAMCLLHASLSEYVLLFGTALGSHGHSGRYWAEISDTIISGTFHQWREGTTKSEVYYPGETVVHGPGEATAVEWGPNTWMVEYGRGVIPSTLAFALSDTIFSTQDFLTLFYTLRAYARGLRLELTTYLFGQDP
Chain of Sigma non-opioid intracellular receptor 1 (Rattus norvegicus) (Q9R0C9 whole entry): as above
T1 sequence (P09483 whole entry): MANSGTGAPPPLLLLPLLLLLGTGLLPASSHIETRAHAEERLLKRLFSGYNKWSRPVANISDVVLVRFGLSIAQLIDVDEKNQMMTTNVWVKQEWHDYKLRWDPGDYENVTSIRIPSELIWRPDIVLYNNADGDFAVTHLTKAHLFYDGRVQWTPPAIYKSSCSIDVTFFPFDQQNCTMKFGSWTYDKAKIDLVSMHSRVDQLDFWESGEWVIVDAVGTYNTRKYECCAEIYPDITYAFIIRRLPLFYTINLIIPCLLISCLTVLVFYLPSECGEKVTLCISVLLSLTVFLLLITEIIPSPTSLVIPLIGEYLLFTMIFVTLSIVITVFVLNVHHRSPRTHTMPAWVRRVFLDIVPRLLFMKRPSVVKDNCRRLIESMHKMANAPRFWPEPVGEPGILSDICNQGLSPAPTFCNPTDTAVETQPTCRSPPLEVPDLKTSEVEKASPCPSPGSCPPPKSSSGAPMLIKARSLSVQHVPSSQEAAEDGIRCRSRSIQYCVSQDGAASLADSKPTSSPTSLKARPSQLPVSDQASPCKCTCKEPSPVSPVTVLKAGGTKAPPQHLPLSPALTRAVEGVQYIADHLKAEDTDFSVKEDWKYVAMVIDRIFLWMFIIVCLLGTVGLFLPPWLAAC
T1 sequence (P12390 whole entry): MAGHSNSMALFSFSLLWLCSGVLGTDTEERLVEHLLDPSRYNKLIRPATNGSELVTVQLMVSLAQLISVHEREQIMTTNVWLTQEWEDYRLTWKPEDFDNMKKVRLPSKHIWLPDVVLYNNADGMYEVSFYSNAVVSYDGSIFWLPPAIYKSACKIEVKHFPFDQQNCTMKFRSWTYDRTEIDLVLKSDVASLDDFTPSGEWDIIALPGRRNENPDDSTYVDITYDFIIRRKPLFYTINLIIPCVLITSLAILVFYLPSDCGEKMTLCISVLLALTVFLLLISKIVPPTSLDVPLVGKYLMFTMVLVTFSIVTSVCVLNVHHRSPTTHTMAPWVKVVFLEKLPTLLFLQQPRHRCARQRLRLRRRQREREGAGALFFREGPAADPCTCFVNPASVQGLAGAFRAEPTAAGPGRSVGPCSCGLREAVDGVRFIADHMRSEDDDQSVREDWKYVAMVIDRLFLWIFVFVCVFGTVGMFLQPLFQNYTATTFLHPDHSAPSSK
Chain of Neuronal acetylcholine receptor; alpha3/beta2 (P04757 whole entry): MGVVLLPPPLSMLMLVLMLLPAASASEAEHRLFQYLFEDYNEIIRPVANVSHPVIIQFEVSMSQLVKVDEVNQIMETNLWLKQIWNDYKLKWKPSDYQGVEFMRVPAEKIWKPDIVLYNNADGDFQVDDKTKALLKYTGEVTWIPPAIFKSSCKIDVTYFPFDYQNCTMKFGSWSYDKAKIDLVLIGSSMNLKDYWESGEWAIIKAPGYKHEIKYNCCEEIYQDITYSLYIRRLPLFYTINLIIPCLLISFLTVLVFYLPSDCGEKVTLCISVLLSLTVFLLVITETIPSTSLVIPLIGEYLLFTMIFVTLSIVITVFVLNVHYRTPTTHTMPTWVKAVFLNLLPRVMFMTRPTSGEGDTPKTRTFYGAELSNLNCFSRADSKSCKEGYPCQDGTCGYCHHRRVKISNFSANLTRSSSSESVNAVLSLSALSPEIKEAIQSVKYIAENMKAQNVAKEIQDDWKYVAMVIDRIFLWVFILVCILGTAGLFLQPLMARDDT
Chain of Neuronal acetylcholine receptor; alpha3/beta2 (P12390 whole entry): as the sequence (P12390 whole entry) above
Chain of Neuronal acetylcholine receptor; alpha3/beta4 (P04757 whole entry): as the sequence (P04757 whole entry) above
Chain of Neuronal acetylcholine receptor; alpha3/beta4 (P12392 whole entry): as the sequence (P12392 whole entry) above
Chain of Neuronal acetylcholine receptor; alpha4/beta4 (P09483 whole entry): as the sequence (P09483 whole entry) above
Chain of Neuronal acetylcholine receptor; alpha4/beta4 (P12392 whole entry): as the sequence (P12392 whole entry) above
Chain of Sigma non-opioid intracellular receptor 1 (Homo sapiens, UniProt Q99720) (Q99720 whole entry): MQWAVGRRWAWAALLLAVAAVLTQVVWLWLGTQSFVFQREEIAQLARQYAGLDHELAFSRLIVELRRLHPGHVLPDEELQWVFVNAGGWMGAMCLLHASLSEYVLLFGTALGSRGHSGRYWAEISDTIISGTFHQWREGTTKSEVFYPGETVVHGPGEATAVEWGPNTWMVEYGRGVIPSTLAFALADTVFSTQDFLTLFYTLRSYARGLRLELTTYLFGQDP

Structure (SMILES) | Activity [1] [%] | Activity [2] [%] | pKi [3] | also measured
COCc1cc(OC[C@@H]2CCN2)no1 | < 50 | < 50 |  | 
OCc1cc(OC[C@@H]2CCN2)on1 | < 50 | < 50 |  | 
Cc1cc(OC[C@@H]2CCN2)on1 | < 50 | < 50 |  | 
c1ccc(OCc2cc(OC[C@@H]3CCN3)on2)cc1 | < 50 |  | 6.48 | 
COC(=O)[C@@]1(c2ccccc2)C[C@H]1CN(C)C12CC3CC(CC(C3)C1)C2 |  |  |  | pKi [4]: 8.68
c1c(OC[C@@H]2CCN2)noc1COCC1CC1 |  | < 50 |  | pKi [5]: 6.43
c1ccc(OCc2cc(OC[C@@H]3CCCN3)on2)cc1 | < 50 |  | 8.38 | 
Clc1cncc(OCc2cc(OC[C@@H]3CCN3)no2)c1 | < 50 |  | 6.99 | pKi [6]: 5.25; pKi [7]: < 5.00; pKi [8]: 5.65; pKi [9]: 5.21; pKi [10]: < 5.00; pKi [11]: 5.74
Cc1cc(OC[C@@H]2CCN2)no1 | < 50 | < 50 |  | 
